According to PubChem BioAssay (NCI):
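Growth conditions: 96-well plates. Treatment: test compound, 48 hours, 5 concentrations. Analysis: linear interpolation between bracketing concentrations; unreached endpoints set to highest concentration. TGI denotes the concentration required for complete inhibition of growth.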

Assays:
Assay in all cases: NCI tumour cell line growth inhibition, 48 h
UACC-62 melanoma = tested on: UACC-62 melanoma
HCT-15 colon = tested on: HCT-15 colon
P388/ADR leukemia = tested on: P388/ADR leukemia
SF-268 CNS = tested on: SF-268 CNS
SNB-19 CNS = tested on: SNB-19 CNS
HT29 colon = tested on: HT29 colon
UO-31 renal = tested on: UO-31 renal
MOLT-4 leukemia = tested on: MOLT-4 leukemia
U251 CNS = tested on: U251 CNS
SK-MEL-28 melanoma = tested on: SK-MEL-28 melanoma
K-562 leukemia = tested on: K-562 leukemia
NCI-H522 lung = tested on: NCI-H522 lung
OVCAR-4 ovarian = tested on: OVCAR-4 ovarian
HCC-2998 colon = tested on: HCC-2998 colon
HOP-92 NSCLC = tested on: HOP-92 NSCLC
SF-295 CNS = tested on: SF-295 CNS
DLD-1 colon = tested on: DLD-1 colon
CCRF-CEM leukemia = tested on: CCRF-CEM leukemia
RXF 393 renal = tested on: RXF 393 renal
KM20L2 colon = tested on: KM20L2 colon
DMS 273 small cell lung = tested on: DMS 273 small cell lung
XF 498 CNS = tested on: XF 498 CNS
M19-MEL melanoma = tested on: M19-MEL melanoma
OVCAR-8 ovarian = tested on: OVCAR-8 ovarian
HOP-62 NSCLC = tested on: HOP-62 NSCLC
SK-MEL-2 melanoma = tested on: SK-MEL-2 melanoma
RPMI-8226 leukemia = tested on: RPMI-8226 leukemia
OVCAR-3 ovarian = tested on: OVCAR-3 ovarian
HOP-18 NSCLC = tested on: HOP-18 NSCLC
HCT-116 colon = tested on: HCT-116 colon
SW-620 colon = tested on: SW-620 colon
IGROV1 ovarian = tested on: IGROV1 ovarian
A498 renal = tested on: A498 renal
SN12K1 renal = tested on: SN12K1 renal
SF-539 CNS = tested on: SF-539 CNS
SN12C renal = tested on: SN12C renal
SNB-78 CNS = tested on: SNB-78 CNS
HL-60(TB) leukemia = tested on: HL-60(TB) leukemia
A549 NSCLC = tested on: A549 NSCLC
NCI-H226 lung = tested on: NCI-H226 lung
LOX IMVI melanoma = tested on: LOX IMVI melanoma
SK-MEL-5 melanoma = tested on: SK-MEL-5 melanoma
NCI-H460 lung = tested on: NCI-H460 lung
NCI-H23 lung = tested on: NCI-H23 lung
SK-OV-3 ovarian = tested on: SK-OV-3 ovarian
SNB-75 CNS = tested on: SNB-75 CNS
EKVX NSCLC = tested on: EKVX NSCLC
KM12 colon = tested on: KM12 colon
OVCAR-5 ovarian = tested on: OVCAR-5 ovarian
UACC-257 melanoma = tested on: UACC-257 melanoma
DMS 114 small cell lung = tested on: DMS 114 small cell lung
COLO 205 colon = tested on: COLO 205 colon
CAKI-1 renal = tested on: CAKI-1 renal
NCI/ADR-RES ovarian = tested on: NCI/ADR-RES ovarian
MCF7 breast = tested on: MCF7 breast
MALME-3M melanoma = tested on: MALME-3M melanoma
P388 leukemia = tested on: P388 leukemia
ACHN renal = tested on: ACHN renal
TK-10 renal = tested on: TK-10 renal
786-0 renal = tested on: 786-0 renal
RXF-631 renal = tested on: RXF-631 renal
LXFL 529 NSCLC = tested on: LXFL 529 NSCLC

## S=P1(N2CCCCC2)Oc2ccc3ccccc3c2-c2c(ccc3ccccc23)O1
UACC-62 melanoma
  TGI: > 100 µM
HCT-15 colon
  TGI: > 100 µM
P388/ADR leukemia
  TGI: > 100 µM
SF-268 CNS
  TGI: > 100 µM
SNB-19 CNS
  TGI: > 100 µM
HT29 colon
  TGI: > 100 µM
UO-31 renal
  TGI: > 100 µM
MOLT-4 leukemia
  TGI: > 100 µM
U251 CNS
  TGI: > 100 µM
SK-MEL-28 melanoma
  TGI: > 100 µM
K-562 leukemia
  TGI: > 100 µM
NCI-H522 lung
  TGI: > 100 µM
OVCAR-4 ovarian
  TGI: 97.6 µM
HCC-2998 colon
  TGI: > 100 µM
HOP-92 NSCLC
  TGI: > 100 µM
SF-295 CNS
  TGI: > 100 µM
DLD-1 colon
  TGI: > 100 µM
CCRF-CEM leukemia
  TGI: > 31.6 µM
RXF 393 renal
  TGI: > 100 µM
KM20L2 colon
  TGI: > 100 µM
DMS 273 small cell lung
  TGI: > 100 µM
XF 498 CNS
  TGI: > 100 µM
M19-MEL melanoma
  TGI: > 100 µM
OVCAR-8 ovarian
  TGI: > 100 µM
HOP-62 NSCLC
  TGI: > 100 µM
SK-MEL-2 melanoma
  TGI: > 100 µM
RPMI-8226 leukemia
  TGI: > 100 µM
OVCAR-3 ovarian
  TGI: > 88.3 µM
HOP-18 NSCLC
  TGI: > 100 µM
HCT-116 colon
  TGI: > 100 µM
SW-620 colon
  TGI: > 100 µM
IGROV1 ovarian
  TGI: > 100 µM
A498 renal
  TGI: > 100 µM
SN12K1 renal
  TGI: > 100 µM
SF-539 CNS
  TGI: > 100 µM
SN12C renal
  TGI: > 100 µM
SNB-78 CNS
  TGI: > 100 µM
HL-60(TB) leukemia
  TGI: > 100 µM
A549 NSCLC
  TGI: > 100 µM
NCI-H226 lung
  TGI: > 100 µM
LOX IMVI melanoma
  TGI: > 100 µM
SK-MEL-5 melanoma
  TGI: > 100 µM
NCI-H460 lung
  TGI: > 91.6 µM
NCI-H23 lung
  TGI: > 100 µM
SK-OV-3 ovarian
  TGI: > 100 µM
SNB-75 CNS
  TGI: > 92.1 µM
EKVX NSCLC
  TGI: > 100 µM
KM12 colon
  TGI: > 100 µM
OVCAR-5 ovarian
  TGI: > 100 µM
UACC-257 melanoma
  TGI: > 100 µM
DMS 114 small cell lung
  TGI: > 100 µM
COLO 205 colon
  TGI: > 100 µM
CAKI-1 renal
  TGI: > 100 µM
NCI/ADR-RES ovarian
  TGI: > 100 µM
MCF7 breast
  TGI: > 100 µM
MALME-3M melanoma
  TGI: > 59.6 µM
P388 leukemia
  TGI: > 100 µM

## Clc1ccccc1C1=NN(c2ccccc2)C2c3ccccc3OCC12 (configuration not stated)
SF-268 CNS
  TGI: > 100 µM
SNB-19 CNS
  TGI: > 100 µM
HT29 colon
  TGI: > 100 µM
UO-31 renal
  TGI: > 100 µM
MOLT-4 leukemia
  TGI: > 100 µM
U251 CNS
  TGI: > 100 µM
ACHN renal
  TGI: > 100 µM
SK-MEL-28 melanoma
  TGI: > 100 µM
K-562 leukemia
  TGI: > 100 µM
NCI-H522 lung
  TGI: > 100 µM
TK-10 renal
  TGI: > 100 µM
HCC-2998 colon
  TGI: > 100 µM
HOP-92 NSCLC
  TGI: > 100 µM
SF-295 CNS
  TGI: > 100 µM
DLD-1 colon
  TGI: > 100 µM
CCRF-CEM leukemia
  TGI: > 100 µM
RXF 393 renal
  TGI: > 100 µM
KM20L2 colon
  TGI: > 100 µM
DMS 273 small cell lung
  TGI: > 100 µM
XF 498 CNS
  TGI: > 100 µM
M19-MEL melanoma
  TGI: > 100 µM
786-0 renal
  TGI: > 100 µM
OVCAR-8 ovarian
  TGI: > 100 µM
HOP-62 NSCLC
  TGI: > 100 µM
SK-MEL-2 melanoma
  TGI: > 100 µM
RPMI-8226 leukemia
  TGI: > 100 µM
OVCAR-3 ovarian
  TGI: > 100 µM
HOP-18 NSCLC
  TGI: > 100 µM
HCT-116 colon
  TGI: > 100 µM
SW-620 colon
  TGI: > 100 µM
IGROV1 ovarian
  TGI: > 100 µM
A498 renal
  TGI: > 100 µM
RXF-631 renal
  TGI: > 100 µM
SNB-78 CNS
  TGI: > 100 µM
HL-60(TB) leukemia
  TGI: > 100 µM
A549 NSCLC
  TGI: > 100 µM
LOX IMVI melanoma
  TGI: > 100 µM
SK-MEL-5 melanoma
  TGI: > 100 µM
NCI-H460 lung
  TGI: > 100 µM
NCI-H23 lung
  TGI: > 100 µM
SK-OV-3 ovarian
  TGI: > 100 µM
SNB-75 CNS
  TGI: > 100 µM
EKVX NSCLC
  TGI: > 100 µM
KM12 colon
  TGI: > 100 µM
OVCAR-5 ovarian
  TGI: > 100 µM
UACC-257 melanoma
  TGI: > 100 µM
DMS 114 small cell lung
  TGI: > 100 µM
COLO 205 colon
  TGI: > 100 µM
LXFL 529 NSCLC
  TGI: > 100 µM
MALME-3M melanoma
  TGI: > 100 µM
